molecular target: T1, GLUT1 (Homo sapiens, UniProt P11166); experiment: not given; settings: substrates and inhibitors of GLUT1; cited from earlier work
T1 sequence (P11166 1-492): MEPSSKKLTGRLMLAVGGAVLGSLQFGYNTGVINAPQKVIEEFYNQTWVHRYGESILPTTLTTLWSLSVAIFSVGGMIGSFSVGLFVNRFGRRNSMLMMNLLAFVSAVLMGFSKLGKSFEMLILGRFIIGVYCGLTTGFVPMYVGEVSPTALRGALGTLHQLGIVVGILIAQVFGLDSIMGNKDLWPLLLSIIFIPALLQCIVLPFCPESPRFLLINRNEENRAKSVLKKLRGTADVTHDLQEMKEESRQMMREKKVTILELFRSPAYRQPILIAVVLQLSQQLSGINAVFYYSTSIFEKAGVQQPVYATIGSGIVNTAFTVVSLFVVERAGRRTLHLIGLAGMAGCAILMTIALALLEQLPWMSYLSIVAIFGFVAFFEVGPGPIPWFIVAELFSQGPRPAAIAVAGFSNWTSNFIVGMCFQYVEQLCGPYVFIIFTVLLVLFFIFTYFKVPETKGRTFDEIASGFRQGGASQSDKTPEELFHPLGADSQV

Row | Molecule | Reported Affinity for GLUT1
1 | O=C1O[C@H]([C@@H](O)CO)C(=O)C1=O [Dehydroascorbic Acid] | 0.8 mM
2 | O=C[C@H](O)[C@@H](O)[C@@H](O)[C@H](O)CO [Galactose] | 4 mM
3 | N[C@H]1C(O)O[C@H](CO)[C@@H](O)[C@@H]1O (stereo partly shown) [Glucosamine] | 9 mM
4 | O=C(CCc1ccc(O)cc1)c1c(O)cc(O)cc1O [Phloretin] | 0.05 mM
5 | (S)-methoxy-a-methyl-2-napthalene acetic acid amido galacto pyranose | 1 mM
6 | Fluorodeoxyglucose | 4 mM

molecular target: T1, GLUT1; experiment: Uptake of 3H-glucose by GLUT1 expressed in Xenopus oocytes; assay type: cell-based; design: expressed in transfected cells; host or cells: Xenopus oocytes (defolliculated), injected with in vitro transcribed GLUT1 cRNA; settings: Xenopus oocytes injected with GLUT1 cRNA
Description: To assess transport function of a specific transporter protein, it can be desirable to clone the cDNA and express the protein in cells that have low endogenous transport activity. Human GLUT1 was cloned by PCR, fully sequenced, and subcloned into plasmids that can be used for expression in mammalian cells or Xenopus oocytes. […] For expression in Xenopus oocytes, in vitro GLUT1 cRNA was prepared and injected into defoliculated oocytes. […]

Row | Molecule | 3H-glucose uptake versus noninjected controls
7 | O=C[C@H](O)[C@@H](O)[C@H](O)[C@H](O)CO [^3H-glucose] | higher levels
